Test [1] concerns human colon cancer cell SW620. Briefly: MTT proliferation assay in combination with CPT-11, SW620. Particulars: medium containing 205 nM CPT-11, 5 days, read-out: IC50, inhibition of proliferation of SW620 combined with CPT-11. Format: cell-based. Here is the method: Determination of the Inhibitory Effect of the Compound of Example 2 and its Analogues in Combination with CPT-11 on the Proliferation of Human Colon Cancer Cell SW620 Using MTT Assay
The human colon cancer cells SW620 were cultured in RPMI 1640 medium with 10% FBS and used at about 90% confluence for experiments. The SW620 cells were digested with trypsinase and centrifuged at 800 rpm for 5 minutes. The supernatant was discarded and the cell pellets were resuspended with fresh medium (RPMI 1640+10% FBS). The cells were seeded into 96-well cell culture plates with appropriate cell density and incubated at 37° C. overnight in a 5% CO2 incubator. […] The first concentration was 1 μM or 0.333 μM, the last concentration was DMSO negative control (0 μM). 5 μL of solutions of each concentration was added to 120 μL of medium (a 25 times dilution) and mixed by shaking. The cells were cultured overnight and the culture medium was replaced with 195 μL/well of fresh medium containing 205 nM CPT-11 and 5 μL/well of medium containing the test compound (the final concentration of DMSO was 1%). The culture plates were returned to incubator and cultured at 37° C., 5% CO2 for 5 days. At the day of experiment, medium was discarded and replaced with 100 μL of fresh serum-free DMEM medium containing MTT (0.5 mg/mL), and the culture was continued. 4 hours later, the medium was discarded and replaced with 100 μL/well of DMSO, the plate was shaken for 10 minutes in dark and the absorbance was measured at the wavelengths of 552 and 690 nm using a multi-function plate reader. Data were analyzed by Graph Pad Prism 6.0. The inhibitory effects of compounds on cell proliferation were plotted based on cell viability vs. the logarithm of compound concentration. Cell viability %=(ODcompound−ODbackground)/(ODDMSO−ODbackground)×100.
Table 3 summarizes the inhibitory effect data (IC50) of some compounds combined with CPT-11 on the proliferation of human colon cancer cell SW620.

Test [2] concerns human breast cancer cell MDA-MB-468. Briefly: MTT proliferation assay, MDA-MB-468. Format: cell-based. Particulars: Homo sapiens, MDA-MB-468, 168 h, 7 days, single agent, read-out: IC50, inhibition of proliferation of MDA-MB-468. As to the method: Determination of the Inhibitory Effect of the Compound of Example 2 and its Analogues on the Proliferation of Human Breast Cancer Cell MDA-MB-468 Using MTT Assay
The human breast cancer cells MDA-MB-468 were cultured in RPMI 1640 medium with 10% FBS and used at 90% confluence. The MDA-IVB-468 cells were digested with trypsinase and centrifuged at 800 rpm for 5 minutes. The supernatant was discarded and the cell pellets were resuspended with fresh medium and counted. Cells were seeded to 96-well cell culture plates with appropriate cell density and incubated overnight at 37° C., 5% CO2. […] 5 μL of solutions of each concentration was added to 120 μL of medium (diluted by 25 times) and mixed by shaking. The culture medium of cells cultured overnight was discarded and replaced with 195 μL/well of fresh medium (RPMI 1640+5% FBS) and 5 μL/well of diluted medium containing the test compound of corresponding concentrations (the final concentration of DMSO was 1%), and the culture plate was then returned to 5% CO2 incubator at 37° C. for 7 days (on the fourth day, dressing was changed once and culture was continued). On the day of experiment, culture medium was discarded and replaced with 100 μL/well of fresh serum-free DMEM medium containing MTT (0.5 mg/mL), and the culture was continued. After 4 hours, medium was discarded and replaced with 100 μL/well of DMSO, the plates were shaken for 10 minutes in darkness and the absorbance was measured at the wavelengths of 552 and 693 nm using a multi-function plate reader. Graph Pad Prism 6.0 was used to analyze the data. The inhibitory effects of compounds on cell proliferation were plotted based on cell viability vs. the logarithm of compound concentration. Cell viability %=(ODcompound−ODbackground)/(ODDMSO−ODbackground)×100.
Table 4 summarizes the inhibitory effect data (IC50) of some compounds on the proliferation of human breast cancer cell MDA-MB-468.

Take `Cc1nc(N2C[C@@H](C)O[C@@H](C)C2)n2c1cnc1ccc(-c3ccc(OCCCN(C)C)c(Cl)c3)cc12` [Example 62, 3-(2-chloro-4-(1-((2S,6R)-2,6-dimethylmorpholino)-3-methylimidazo[1,5-a]quinoxalin-8-yl)phenoxy)-N,N-dimethylpropan-1-amine]: the figures for the IC50 in test [1] and in test [2] were 43 nM and 34 nM, respectively.
Taken in the same sequence, the figures for `CC(C)c1nc(N2C[C@@H](C)O[C@@H](C)C2)n2c1cnc1ccc(-c3ccc(OCCCN(C)C)nc3)cc12` [Example 42, 3-((5-(1-((2S,6R)-2,6-dimethylmorpholino)-3-isopropylimidazo[1,5-a]quinoxalin-8-yl)pyridin-2-yl)oxy)-N,N-dimethylpropan-1-amine] were 852 nM and 533 nM.
Consider `Cc1nc(N2C[C@@H](C)O[C@@H](C)C2)n2c1cnc1ccc(-c3ccc(N(C)CCCN(C)C)nc3)cc12` [Example 47, N^1-(5-(1-((2S,6R)-2,6-dimethylmorpholino)-3-methylimidazo[1,5-a]quinoxalin-8-yl)pyridin-2-yl)-N^1,N^3,N^3-trimethylpropane-1,3-diamine], for which the IC50 worked out at 17.9 nM in test [1] and 126 nM in test [2].
As to `Cc1nc(N2C[C@@H](C)O[C@@H](C)C2)n2c1cnc1ccc(-c3ccc(CCN4CCN(C)CC4)nc3)cc12` [Example 60, (2S,6R)-2,6-dimethyl-4-(3-methyl-8-(6-(2-(4-methylpiperazin-1-yl)ethyl)pyridin-3-yl)imidazo[1,5-a]quinoxalin-1-yl)morpholine], the IC50 is more than 1000 nM in test [1] and 832 nM in test [2].
On to `Cc1nc(N2C[C@@H](C)O[C@@H](C)C2)n2c1cnc1ccc(-c3ccc(N4CCC(N5CCC5)CC4)nc3)cc12` [Example 52, (2S,6R)-4-(8-(6-(4-(azetidin-1-yl)piperidin-1-yl)pyridin-3-yl)-3-methylimidazo[1,5-a]quinoxalin-1-yl)-2,6-dimethylmorpholine], for which the IC50 is 5.5 nM in test [1] and 6.1 nM in test [2].
For `C[C@@H]1CN(c2ncc3cnc4ccc(-c5ccc(N6CCC(N(C)C)CC6)nc5)cc4n23)C[C@H](C)O1` [Example 45, 1-(5-(1-((2S,6R)-2,6-dimethylmorpholino)imidazo[1,5-a]quinoxalin-8-yl)pyridin-2-yl)-N,N-dimethylpiperidin-4-amine] the same measures were 20.9 nM and 18.8 nM.
For the molecule `Cc1nc(N2C[C@@H](C)O[C@@H](C)C2)n2c1cnc1ccc(-c3ccc(OCCc4c[nH]cn4)nc3)cc12` [Example 35, (2S,6R)-4-(8-(6-(2-(1H-imidazol-4-yl)ethoxy)pyridin-3-yl)-3-methylimidazo[1,5-a]quinoxalin-1-yl)-2,6-dimethylmorpholine], the IC50 in test [1] worked out at 564 nM; in test [2], 419 nM.
For `Cc1nc(N2C[C@@H](C)O[C@@H](C)C2)n2c1cnc1ccc(-c3ccc(OCCCN(C)C)c(F)c3)cc12` [Example 61, 3-(4-(1-((2S,6R)-2,6-dimethylmorpholino)-3-methylimidazo[1,5-a]quinoxalin-8-yl)-2-fluorophenoxy)-N,N-dimethylpropan-1-amine] the same measures were 21.7 nM and 20.8 nM.

The values above are taken from US12653830B2, “Substituted imidazoquinoxaline compounds and uses thereof” (Impact Therapeutics (Shanghai), Inc, priority 2019, dated 2026).
